# According to paper PMC5118709, “Identification of Polo-like kinase 1 interaction inhibitors using a novel cell-based assay” (Scientific Reports, 2016):
# Target: GST-PBD367-603 of Plk1 (Homo sapiens, UniProt P53350)
# Assay: fluorescence polarization assay PBD-phosphopeptide
# Conditions: FP - IC50 (μM), Table S3
# Experimental: In this assay, an optimal phosphopeptide for PBD binding is coupled with a FITC fluorophore and its binding to purified recombinant PBD of Plk1 is monitored by the change in polarization of incident light.
# The FP buffer was composed of 10 mM Tris pH 8.0, 50 mM NaCl, 1 mM EDTA, 20% glycerol and 0.1% NP-40. The peptide (final concentration 10 nM) was always added to the wells of non-binding, black, 384-well plates, 1 hour after the addition of the protein with the buffer (+/− treatment, 10% DMSO). […] EC65s were used to perform the competitive assays with the non-labeled peptides and with the inhibitors. FP Inhibition was calculated with the formula: 100 − [((mPsample − mPfree peptide)\(mPDMSO − mPfree peptide)) × 100]. […] (Map peptide), and corresponding non-labeled peptides are identical but without FITC in N-terminal. […] Inhibition curves were fitted with GraphPad (Prism software).
# Sequence of GST-PBD367-603 of Plk1 (P53350 367-603): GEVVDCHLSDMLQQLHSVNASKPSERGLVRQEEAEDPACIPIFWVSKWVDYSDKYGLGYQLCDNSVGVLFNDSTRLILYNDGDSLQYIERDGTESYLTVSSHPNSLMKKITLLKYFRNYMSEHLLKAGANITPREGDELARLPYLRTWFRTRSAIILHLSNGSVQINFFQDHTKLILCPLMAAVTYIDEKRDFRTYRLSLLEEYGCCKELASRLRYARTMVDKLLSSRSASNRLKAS
row,Compound,IC50 [µM]
1,O=C(OCCS(=O)(=O)c1ccccn1)c1ccccc1 [Cpd 124],68.6 ± 18.5

# Same assay, conditions: IC50 in FP, GST-PBD367-603 38 nM, 1 h pre-incubation, FITC-phosphopeptide 10 nM, Fig. 4C
row,Compound,IC50 [µM]
1,O=C(OCCS(=O)(=O)c1ccccn1)c1ccccc1 [Cpd 124],56

# Same assay, conditions: SAR
row,Compound,activity in the FP assay
1,O=C(NCCS(=O)(=O)c1ccc(C(F)(F)F)cn1)c1ccc(Cl)cc1 [Cpd 142],activity was abolished
2,"Cc1cc(C(F)(F)F)cc(SCCOC(=O)c2cccc(Cl)c2)n1 [Cpd 147, 2-((6-methyl-4-(trifluoromethyl)pyridin-2-yl)thio)ethyl 3-chlorobenzoate]",activity was abolished
3,"Cc1cc(C(F)(F)F)cc([S+]([O-])CCOC(=O)c2cccc(Cl)c2)n1 (centres unmarked) [Cpd 148, 2-((6-methyl-4-(trifluoromethyl)pyridin-2-yl)sulfinyl)ethyl 3-chlorobenzoate]",activity was abolished
4,"Cc1cc(C(F)(F)F)cc(S(=O)(=O)CCO)n1 [Cpd 158, 2-((6-methyl-4-(trifluoromethyl)pyridin-2-yl)sulfonyl)ethanol]",completely abrogated activity
5,"CCS(=O)(=O)c1cc(C(F)(F)F)cc(C)n1 [Cpd 169, 2-(ethylsulfonyl)-6-methyl-4-(trifluoromethyl)pyridine]",completely abrogated activity

# Same assay, conditions: Table S3
row,Compound,FP - IC50 (μM)
1,O=S(=O)(CC(O)COc1ccccc1)c1ccccn1 (centres unmarked) [Cpd 136],No inhibition
2,Cc1ccc(S(=O)(=O)CCC(=O)Nc2cccc(Cl)c2)cc1 [Cpd 137],No inhibition
3,Cc1ccc(S(=O)(=O)CCC(=O)OCc2ccc(Cl)c(Cl)c2)cc1 [Cpd 138],No inhibition
4,O=[N+]([O-])c1cccc(S(=O)(=O)NCCOc2cccc(Cl)c2Cl)c1 [Cpd 139],No inhibition
5,Cc1c(Cl)cccc1NC(=O)CCS(=O)(=O)c1ccccc1 [Cpd 140],No inhibition
6,CC(CC(=O)Nc1ccc(Cl)cc1)S(=O)(=O)c1ccc(Cl)cc1 (centres unmarked) [Cpd 141],No inhibition
7,O=C(NCCS(=O)(=O)c1ccc(C(F)(F)F)cn1)c1ccc(Cl)cc1 [Cpd 142],No inhibition
8,O=C(CS(=O)(=O)c1cc(C(F)(F)F)cc(C(F)(F)F)c1)Nc1ccccc1F [Cpd 143],No inhibition
9,O=C(CS(=O)(=O)c1ccc(C(F)(F)F)cn1)NNC(=O)c1ccccc1 [Cpd 144],No inhibition
10,Cc1ccc(NC(=O)CCS(=O)(=O)c2ccccc2)c(Br)c1 [Cpd 145],No inhibition
11,"Cc1cc(C(F)(F)F)cc(SCCO)n1 [Cpd 146, 2-((6-methyl-4-(trifluoromethyl)pyridin-2-yl)thio) ethanol]",No inhibition
12,"Cc1cc(C(F)(F)F)cc(SCCOC(=O)c2cccc(Cl)c2)n1 [Cpd 147, 2-((6-methyl-4-(trifluoromethyl)pyridin-2-yl)thio)ethyl 3-chlorobenzoate]",No inhibition
13,"Cc1cc(C(F)(F)F)cc([S+]([O-])CCOC(=O)c2cccc(Cl)c2)n1 (centres unmarked) [Cpd 148, 2-((6-methyl-4-(trifluoromethyl)pyridin-2-yl)sulfinyl)ethyl 3-chlorobenzoate]",No inhibition
14,Cc1cc(C(F)(F)F)cc(SCCOC(=O)c2cccc(OC(F)(F)F)c2)n1 [Cpd 149],No inhibition
15,Cc1cccc(C(=O)OCCSc2cc(C(F)(F)F)cc(C)n2)c1 [Cpd 150],No inhibition
16,Cc1cc(C(F)(F)F)cc(SCCOC(=O)c2cccc(Br)c2)n1 [Cpd 153],No inhibition
17,Cc1cc(C(F)(F)F)cc(SCCOC(=O)c2cc(Cl)cc(Cl)c2)n1 [Cpd 155],No inhibition
18,Cc1cc(C(F)(F)F)cc(SCCOCc2cccc(Cl)c2)n1 [Cpd 157],No inhibition
19,"Cc1cc(C(F)(F)F)cc(S(=O)(=O)CCO)n1 [Cpd 158, 2-((6-methyl-4-(trifluoromethyl)pyridin-2-yl)sulfonyl)ethanol]",No inhibition
20,Cc1cc(C(F)(F)F)cc(S(=O)(=O)CCOCc2cccc(Cl)c2)n1 [Cpd 159],No inhibition
21,Cc1cc(C(F)(F)F)cc(SCCOC(=O)C2CCCCC2)n1 [Cpd 168],No inhibition
22,"CCS(=O)(=O)c1cc(C(F)(F)F)cc(C)n1 [Cpd 169, 2-(ethylsulfonyl)-6-methyl-4-(trifluoromethyl)pyridine]",No inhibition

# Same assay, conditions: read-out: FP - IC50; Table S3
row,Compound,IC50 [µM]
1,Cc1ccc(C(=O)OCCS(=O)(=O)c2ccc(C(F)(F)F)cn2)cc1 [Cpd 123],7.2
2,O=C(OCCS(=O)(=O)c1ccc(C(F)(F)F)cn1)c1cccc(Cl)c1 [Cpd 125],11.9 ± 7.2
3,O=C(OCCS(=O)(=O)c1ncccc1Cl)c1cccc(Cl)c1 [Cpd 126],4.3
4,O=C(OCCS(=O)(=O)c1ccccn1)c1cccc(Cl)c1 [Cpd 127],187
5,O=C(OCCS(=O)(=O)c1ncccc1C(F)(F)F)c1cccc(Cl)c1 [Cpd 128],8.4
6,O=C(OCCS(=O)(=O)c1ccc(C(F)(F)F)cn1)c1ccccc1 [Cpd 129],8.5
7,O=C(OCCS(=O)(=O)c1ccc(C(F)(F)F)cn1)c1ccc(Cl)c(Cl)c1 [Cpd 130],7.8
8,O=C(OCCS(=O)(=O)c1ccc(Cl)cn1)c1cccc(Cl)c1 [Cpd 131],70.5
9,CC(C)(C)c1ccc(C(=O)OCCS(=O)(=O)c2ccc(C(F)(F)F)cn2)cc1 [Cpd 132],26.1
10,O=C(OCCS(=O)(=O)c1ccc([N+](=O)[O-])cn1)c1cccc(Cl)c1 [Cpd 133],5.4
11,Cc1cc(C(F)(F)F)cc(S(=O)(=O)CCOC(=O)c2cccc(OC(F)(F)F)c2)n1 [Cpd 151],41.7
12,Cc1cccc(C(=O)OCCS(=O)(=O)c2cc(C(F)(F)F)cc(C)n2)c1 [Cpd 152],54.4
13,Cc1cc(C(F)(F)F)cc(S(=O)(=O)CCOC(=O)c2cccc(Br)c2)n1 [Cpd 154],36.8
14,Cc1cc(C(F)(F)F)cc(S(=O)(=O)CCOC(=O)c2cc(Cl)cc(Cl)c2)n1 [Cpd 156],48.1
15,Cc1cc(C(F)(F)F)cc(S(=O)(=O)CCOC(=O)C2CCCCC2)n1 [Cpd 160],75
16,"Cc1cc(C(F)(F)F)cc(S(=O)(=O)CCOS(C)(=O)=O)n1 [Cpd 164, 2-((6-methyl-4-(trifluoromethyl)pyridin-2-yl)sulfonyl) ethyl methanesulfonate]",6

# Test system: HeLa cells
# Assay: mitotic defect phenotypes by immunofluorescence
# Type: cell-based
# Conditions: 10 nM, 7 h
# Experimental: HeLa cells were treated with these compounds along with the known PBD inhibitors PPG, TQ, Poloxin and the KD inhibitor BI2536 as controls, and then stained against α-Tubulin, pericentrin (a centrosome marker) and DNA (Fig. 2D). In all cases, there was a marked increase in the frequency of disorganized spindles compared with DMSO-treated control cells. This is expected as Plk1 plays multiple roles in spindle assembly and maintenance. […] Cpd 69, an analog of compound 122, induced a similar phenotype at lower concentrations (data not shown). This phenotype was not seen after treatment with BI2536.
# For the mitotic defect phenotypes, 25 200 HeLa cells were plated on poly-L-lysine coated round cover slips in 24-well plates. The day after, cells were treated for 7 hours, and then washed with PHEM buffer at 37 °C before fixation in PHEM buffer containing 4% formaldehyde for 20 minutes at 37 °C. Cells were washed three times with TBS-tween 0.1% and plate was kept overnight at 4 °C. Next steps were followed as previously described except that coverslips were incubated in a dark wet chamber with antibodies. Anti-pericentrin (diluted 1:1000; Abcam), anti-α-tubulin DM1A (diluted 1:500; Sigma-Aldrich), Alexa Fluor 488 anti-rabbit and Texas-Red anti-mouse (diluted 1:200; Invitrogen) were used. Coverslips were mounted on slide using Vectashield media containing DAPI (Vector Laboratories).
# Images shown in Fig. 2D were acquired on an AxioImager microscope (Carl Zeiss) with a 100x oil objective (NA 1.4 DICIII) and an AxioCam HRM camera (Carl Zeiss) using AxioVision software (Carl Zeiss).
Compound,2 > pericentrin foci (percentage of cells) [%],Disorganized spindles (percentage of cells) [%]
CC[C@@H]1C(=O)N(C)c2cnc(Nc3ccc(C(=O)NC4CCN(C)CC4)cc3OC)nc2N1C1CCCC1 [BI2536],3 ± 2,55 ± 8
